Assay results: PubChem BioAssay (NCI)
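Each compound was tested at five concentrations against cells in 96-well plates for 48 hours. The concentration for full growth arrest is given as TGI.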

Key:
Test in all cases: DTP human tumour cell line panel, 48 h
786-0 renal = test system: 786-0 renal
A498 renal = test system: A498 renal
A549 NSCLC = test system: A549 NSCLC
ACHN renal = test system: ACHN renal
CAKI-1 renal = test system: CAKI-1 renal
CCRF-CEM leukemia = test system: CCRF-CEM leukemia
COLO 205 colon = test system: COLO 205 colon
DLD-1 colon = test system: DLD-1 colon
DMS 114 small cell lung = test system: DMS 114 small cell lung
DMS 273 small cell lung = test system: DMS 273 small cell lung
EKVX NSCLC = test system: EKVX NSCLC
HCC-2998 colon = test system: HCC-2998 colon
HCT-116 colon = test system: HCT-116 colon
HCT-15 colon = test system: HCT-15 colon
HL-60(TB) leukemia = test system: HL-60(TB) leukemia
HOP-18 NSCLC = test system: HOP-18 NSCLC
HOP-62 NSCLC = test system: HOP-62 NSCLC
HOP-92 NSCLC = test system: HOP-92 NSCLC
HT29 colon = test system: HT29 colon
IGROV1 ovarian = test system: IGROV1 ovarian
K-562 leukemia = test system: K-562 leukemia
KM12 colon = test system: KM12 colon
KM20L2 colon = test system: KM20L2 colon
LOX IMVI melanoma = test system: LOX IMVI melanoma
LXFL 529 NSCLC = test system: LXFL 529 NSCLC
M14 melanoma = test system: M14 melanoma
M19-MEL melanoma = test system: M19-MEL melanoma
MALME-3M melanoma = test system: MALME-3M melanoma
MOLT-4 leukemia = test system: MOLT-4 leukemia
NCI-H226 lung = test system: NCI-H226 lung
NCI-H23 lung = test system: NCI-H23 lung
NCI-H460 lung = test system: NCI-H460 lung
NCI-H522 lung = test system: NCI-H522 lung
OVCAR-3 ovarian = test system: OVCAR-3 ovarian
OVCAR-4 ovarian = test system: OVCAR-4 ovarian
OVCAR-5 ovarian = test system: OVCAR-5 ovarian
OVCAR-8 ovarian = test system: OVCAR-8 ovarian
RPMI-8226 leukemia = test system: RPMI-8226 leukemia
RXF 393 renal = test system: RXF 393 renal
RXF-631 renal = test system: RXF-631 renal
SF-268 CNS = test system: SF-268 CNS
SF-295 CNS = test system: SF-295 CNS
SF-539 CNS = test system: SF-539 CNS
SK-MEL-2 melanoma = test system: SK-MEL-2 melanoma
SK-MEL-28 melanoma = test system: SK-MEL-28 melanoma
SK-MEL-5 melanoma = test system: SK-MEL-5 melanoma
SK-OV-3 ovarian = test system: SK-OV-3 ovarian
SN12C renal = test system: SN12C renal
SNB-19 CNS = test system: SNB-19 CNS
SNB-75 CNS = test system: SNB-75 CNS
SNB-78 CNS = test system: SNB-78 CNS
SR leukemia = test system: SR leukemia
SW-620 colon = test system: SW-620 colon
TK-10 renal = test system: TK-10 renal
U251 CNS = test system: U251 CNS
UACC-257 melanoma = test system: UACC-257 melanoma
UACC-62 melanoma = test system: UACC-62 melanoma
UO-31 renal = test system: UO-31 renal
XF 498 CNS = test system: XF 498 CNS

Oc1cc2cc(-c3ccccc3)[nH]c2c2ccccc12
TGI (786-0 renal): > 100 µM | TGI (A498 renal): > 100 µM | TGI (A549 NSCLC): > 100 µM | TGI (ACHN renal): > 88.3 µM | TGI (CAKI-1 renal): 90.8 µM | TGI (CCRF-CEM leukemia): > 100 µM | TGI (COLO 205 colon): > 37.8 µM | TGI (DLD-1 colon): > 100 µM | TGI (DMS 114 small cell lung): 27.7 µM | TGI (DMS 273 small cell lung): 2.06 µM | TGI (EKVX NSCLC): > 100 µM | TGI (HCC-2998 colon): > 100 µM | TGI (HCT-116 colon): 37.1 µM | TGI (HCT-15 colon): > 100 µM | TGI (HL-60(TB) leukemia): > 100 µM | TGI (HOP-18 NSCLC): > 96 µM | TGI (HOP-62 NSCLC): > 100 µM | TGI (HOP-92 NSCLC): > 95.6 µM | TGI (HT29 colon): > 100 µM | TGI (IGROV1 ovarian): > 100 µM | TGI (K-562 leukemia): > 88.8 µM | TGI (KM12 colon): > 100 µM | TGI (KM20L2 colon): > 100 µM | TGI (LOX IMVI melanoma): 34.3 µM | TGI (LXFL 529 NSCLC): > 100 µM | TGI (M14 melanoma): 61 µM | TGI (M19-MEL melanoma): 28.9 µM | TGI (MALME-3M melanoma): 41.6 µM | TGI (MOLT-4 leukemia): > 82.6 µM | TGI (NCI-H226 lung): > 100 µM | TGI (NCI-H23 lung): 36.6 µM | TGI (NCI-H460 lung): 72.1 µM | TGI (NCI-H522 lung): 37.4 µM | TGI (OVCAR-3 ovarian): > 61.4 µM | TGI (OVCAR-4 ovarian): > 100 µM | TGI (OVCAR-5 ovarian): > 100 µM | TGI (OVCAR-8 ovarian): > 100 µM | TGI (RPMI-8226 leukemia): 67.6 µM | TGI (RXF 393 renal): > 78.3 µM | TGI (RXF-631 renal): > 89.8 µM | TGI (SF-268 CNS): > 100 µM | TGI (SF-295 CNS): > 24.5 µM | TGI (SF-539 CNS): 97.1 µM | TGI (SK-MEL-2 melanoma): 43.5 µM | TGI (SK-MEL-28 melanoma): > 100 µM | TGI (SK-MEL-5 melanoma): 27.2 µM | TGI (SK-OV-3 ovarian): > 100 µM | TGI (SN12C renal): > 92.9 µM | TGI (SNB-19 CNS): > 70.2 µM | TGI (SNB-75 CNS): > 100 µM | TGI (SNB-78 CNS): > 100 µM | TGI (SR leukemia): > 93.6 µM | TGI (SW-620 colon): > 100 µM | TGI (TK-10 renal): > 100 µM | TGI (U251 CNS): > 100 µM | TGI (UACC-257 melanoma): 32.5 µM | TGI (UACC-62 melanoma): 29.4 µM | TGI (UO-31 renal): > 92.6 µM | TGI (XF 498 CNS): 25.9 µM

CCOC(=O)C1C(c2cc(OC)c(O)c(OC)c2)c2cc3c(cc2OC1(C)O)OCO3 (stereo unspecified)
TGI (A549 NSCLC): > 100 µM | TGI (ACHN renal): > 100 µM | TGI (CAKI-1 renal): 95.2 µM | TGI (CCRF-CEM leukemia): > 100 µM | TGI (COLO 205 colon): > 100 µM | TGI (DLD-1 colon): > 100 µM | TGI (DMS 273 small cell lung): > 100 µM | TGI (EKVX NSCLC): > 100 µM | TGI (HCT-116 colon): > 100 µM | TGI (HCT-15 colon): > 100 µM | TGI (HL-60(TB) leukemia): > 100 µM | TGI (HOP-18 NSCLC): > 100 µM | TGI (HOP-62 NSCLC): > 100 µM | TGI (HOP-92 NSCLC): 57 µM | TGI (HT29 colon): > 100 µM | TGI (IGROV1 ovarian): > 100 µM | TGI (K-562 leukemia): > 100 µM | TGI (KM20L2 colon): > 100 µM | TGI (LOX IMVI melanoma): > 100 µM | TGI (M14 melanoma): > 100 µM | TGI (M19-MEL melanoma): > 100 µM | TGI (MALME-3M melanoma): > 100 µM | TGI (MOLT-4 leukemia): > 100 µM | TGI (NCI-H23 lung): > 100 µM | TGI (NCI-H460 lung): > 100 µM | TGI (OVCAR-3 ovarian): > 100 µM | TGI (OVCAR-4 ovarian): > 100 µM | TGI (OVCAR-8 ovarian): > 100 µM | TGI (RPMI-8226 leukemia): > 100 µM | TGI (RXF-631 renal): > 100 µM | TGI (SF-295 CNS): > 100 µM | TGI (SF-539 CNS): > 100 µM | TGI (SK-MEL-2 melanoma): > 100 µM | TGI (SK-MEL-28 melanoma): > 100 µM | TGI (SK-MEL-5 melanoma): > 100 µM | TGI (SK-OV-3 ovarian): > 100 µM | TGI (SN12C renal): > 100 µM | TGI (SNB-19 CNS): > 100 µM | TGI (SNB-75 CNS): 77.9 µM | TGI (SNB-78 CNS): > 100 µM | TGI (SW-620 colon): > 100 µM | TGI (TK-10 renal): > 100 µM | TGI (U251 CNS): > 100 µM | TGI (UACC-257 melanoma): > 100 µM | TGI (UACC-62 melanoma): > 100 µM | TGI (UO-31 renal): > 100 µM | TGI (XF 498 CNS): > 100 µM

O=c1[nH]c(=O)n(C2CC(O)C(CO)O2)cc1C#Cc1ccc(C(F)(F)F)cc1 (stereo unspecified)
TGI (786-0 renal): > 100 µM | TGI (A549 NSCLC): > 100 µM | TGI (ACHN renal): > 100 µM | TGI (CCRF-CEM leukemia): > 100 µM | TGI (COLO 205 colon): > 100 µM | TGI (DLD-1 colon): > 100 µM | TGI (DMS 114 small cell lung): > 100 µM | TGI (DMS 273 small cell lung): > 100 µM | TGI (EKVX NSCLC): > 100 µM | TGI (HCC-2998 colon): > 100 µM | TGI (HCT-116 colon): > 100 µM | TGI (HCT-15 colon): > 100 µM | TGI (HL-60(TB) leukemia): > 100 µM | TGI (HOP-18 NSCLC): > 100 µM | TGI (HOP-62 NSCLC): > 100 µM | TGI (HOP-92 NSCLC): > 100 µM | TGI (HT29 colon): > 100 µM | TGI (IGROV1 ovarian): > 100 µM | TGI (K-562 leukemia): > 100 µM | TGI (KM12 colon): > 100 µM | TGI (KM20L2 colon): > 100 µM | TGI (LOX IMVI melanoma): > 100 µM | TGI (LXFL 529 NSCLC): > 100 µM | TGI (M14 melanoma): > 100 µM | TGI (MALME-3M melanoma): > 100 µM | TGI (MOLT-4 leukemia): > 100 µM | TGI (NCI-H226 lung): > 100 µM | TGI (NCI-H23 lung): > 100 µM | TGI (NCI-H460 lung): > 100 µM | TGI (NCI-H522 lung): > 100 µM | TGI (OVCAR-3 ovarian): > 100 µM | TGI (OVCAR-4 ovarian): > 100 µM | TGI (OVCAR-5 ovarian): > 100 µM | TGI (OVCAR-8 ovarian): > 100 µM | TGI (RPMI-8226 leukemia): > 100 µM | TGI (RXF 393 renal): > 100 µM | TGI (RXF-631 renal): > 100 µM | TGI (SF-268 CNS): > 100 µM | TGI (SF-295 CNS): > 100 µM | TGI (SF-539 CNS): > 100 µM | TGI (SK-MEL-2 melanoma): > 100 µM | TGI (SK-MEL-28 melanoma): > 100 µM | TGI (SK-MEL-5 melanoma): > 100 µM | TGI (SK-OV-3 ovarian): > 100 µM | TGI (SN12C renal): > 100 µM | TGI (SNB-19 CNS): > 100 µM | TGI (SNB-75 CNS): > 100 µM | TGI (SR leukemia): > 100 µM | TGI (SW-620 colon): > 100 µM | TGI (TK-10 renal): > 100 µM | TGI (U251 CNS): > 100 µM | TGI (UACC-257 melanoma): > 100 µM | TGI (UACC-62 melanoma): > 100 µM | TGI (UO-31 renal): > 100 µM | TGI (XF 498 CNS): > 100 µM
